# System: 636577-100-R-J1-PDC complex spheroid viability
# Assay: Anticancer human tumor 636577-100-R-J1-PDC patient-derived endometrial adenocarcinoma cell line growth inhibition [GQUAD]
# Settings: for IC50: curve of first compound; for viability, T/C: stronger effect = lower value
# In short: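 Tumor cells were grown as complex spheroids with HUVEC endothelial cells and mesenchymal stem cells as stroma. G-quadruplex stabilizers were combined with targeted agents over half-log dilutions from near the clinical Cmax, or from 10 microM.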
# [1] = second compound 0.0316 µM, first compound 0.000999 µM
# [2] = second compound 0.0316 µM, first compound 0.00316 µM
# [3] = second compound 0.0316 µM, first compound 0.00999 µM
# [4] = second compound 0.0316 µM, first compound 0.0316 µM
# [5] = second compound 0.0316 µM, first compound 0.0999 µM
# [6] = second compound 0.0316 µM, first compound 0.316 µM
# [7] = second compound 0.1 µM, first compound 0.000999 µM
# [8] = second compound 0.1 µM, first compound 0.00316 µM
# [9] = second compound 0.1 µM, first compound 0.00999 µM
# [10] = second compound 0.1 µM, first compound 0.0316 µM
# [11] = second compound 0.1 µM, first compound 0.0999 µM
# [12] = second compound 0.1 µM, first compound 0.316 µM
# [13] = second compound 0.316 µM, first compound 0.000999 µM
# [14] = second compound 0.316 µM, first compound 0.00316 µM
# [15] = second compound 0.316 µM, first compound 0.00999 µM
# [16] = second compound 0.316 µM, first compound 0.0316 µM
# [17] = second compound 0.316 µM, first compound 0.0999 µM
# [18] = second compound 0.316 µM, first compound 0.316 µM
# [19] = second compound 1 µM, first compound 0.000999 µM
# [20] = second compound 1 µM, first compound 0.00316 µM
# [21] = second compound 1 µM, first compound 0.00999 µM
# [22] = second compound 1 µM, first compound 0.0316 µM
# [23] = second compound 1 µM, first compound 0.0999 µM
# [24] = second compound 1 µM, first compound 0.316 µM
# [25] = second compound 3.16 µM, first compound 0.000999 µM
# [26] = second compound 3.16 µM, first compound 0.00316 µM
# [27] = second compound 3.16 µM, first compound 0.00999 µM
# [28] = second compound 3.16 µM, first compound 0.0316 µM
# [29] = second compound 3.16 µM, first compound 0.0999 µM
# [30] = second compound 3.16 µM, first compound 0.316 µM
# [31] = second compound 10 µM, first compound 0.000999 µM
# [32] = second compound 10 µM, first compound 0.00316 µM
# [33] = second compound 10 µM, first compound 0.00999 µM
# [34] = second compound 10 µM, first compound 0.0316 µM
# [35] = second compound 10 µM, first compound 0.0999 µM
# [36] = second compound 10 µM, first compound 0.316 µM
# 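Also: viability read after seven days of drug exposure.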
# 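For viability, T/C in this document: luminescence signal used as a proxy for viable cells; 100% = DMSO vehicle control wells.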
structure (smiles),measurement,setting,value
Cc1[nH]c2ccccc2c1CCNCc1ccc(/C=C/C(=O)NO)cc1 + Cc1[nH]c2ccc(F)cc2c1-c1nc2c3cccnc3c3ncccc3c2[nH]1,IC50,second compound 0.0316 µM,3.82 nM
same,IC50,second compound 0.1 µM,4.27 nM
same,IC50,second compound 0.316 µM,2.57 nM
same,IC50,second compound 1 µM,4.08 nM
same,IC50,second compound 3.16 µM,< 0.999 nM
same,IC50,second compound 10 µM,< 0.999 nM
same,"viability, T/C",[1],85.4%
same,"viability, T/C",[2],50.4%
same,"viability, T/C",[3],37.9%
same,"viability, T/C",[4],17.2%
same,"viability, T/C",[5],8.47%
same,"viability, T/C",[6],10.2%
same,"viability, T/C",[7],76.9%
same,"viability, T/C",[8],50.8%
same,"viability, T/C",[9],41.8%
same,"viability, T/C",[10],14.9%
same,"viability, T/C",[11],7.94%
same,"viability, T/C",[12],12.1%
same,"viability, T/C",[13],80.3%
same,"viability, T/C",[14],37.7%
same,"viability, T/C",[15],32.9%
same,"viability, T/C",[16],16.5%
same,"viability, T/C",[17],7.47%
same,"viability, T/C",[18],10.4%
same,"viability, T/C",[19],51.6%
same,"viability, T/C",[20],59.6%
same,"viability, T/C",[21],30.3%
same,"viability, T/C",[22],15.5%
same,"viability, T/C",[23],9.36%
same,"viability, T/C",[24],8.79%
same,"viability, T/C",[25],23.2%
same,"viability, T/C",[26],27.4%
same,"viability, T/C",[27],23.9%
same,"viability, T/C",[28],17.2%
same,"viability, T/C",[29],9.73%
same,"viability, T/C",[30],7.69%
same,"viability, T/C",[31],32.9%
same,"viability, T/C",[32],34%
same,"viability, T/C",[33],23.1%
same,"viability, T/C",[34],13.5%
same,"viability, T/C",[35],9.1%
same,"viability, T/C",[36],10.7%
Cc1cccc(N(C)C(=O)C2C(O)CCN2c2nc(C)cc(C(F)(F)F)c2C#N)c1 (stereo unspecified) + Cc1[nH]c2ccc(F)cc2c1-c1nc2c3cccnc3c3ncccc3c2[nH]1,IC50,second compound 0.0316 µM,3160 nM
same,IC50,second compound 0.1 µM,> 10000 nM
same,IC50,second compound 0.316 µM,> 10000 nM
same,IC50,second compound 1 µM,> 10000 nM
same,IC50,second compound 3.16 µM,< 31.6 nM
same,IC50,second compound 10 µM,> 10000 nM
same,"viability, T/C",[4],89%
same,"viability, T/C","second compound 0.0316 µM, first compound 0.1 µM",77.5%
same,"viability, T/C",[6],89.5%
same,"viability, T/C","second compound 0.0316 µM, first compound 1 µM",39.3%
same,"viability, T/C","second compound 0.0316 µM, first compound 3.16 µM",61.9%
same,"viability, T/C","second compound 0.0316 µM, first compound 10 µM",61%
same,"viability, T/C",[10],76.3%
same,"viability, T/C","second compound 0.1 µM, first compound 0.1 µM",90.3%
same,"viability, T/C",[12],81%
same,"viability, T/C","second compound 0.1 µM, first compound 1 µM",57.7%
same,"viability, T/C","second compound 0.1 µM, first compound 3.16 µM",79%
same,"viability, T/C","second compound 0.1 µM, first compound 10 µM",69.2%
same,"viability, T/C",[16],71.4%
same,"viability, T/C","second compound 0.316 µM, first compound 0.1 µM",85.8%
same,"viability, T/C",[18],97.8%
same,"viability, T/C","second compound 0.316 µM, first compound 1 µM",48.6%
same,"viability, T/C","second compound 0.316 µM, first compound 3.16 µM",77.5%
same,"viability, T/C","second compound 0.316 µM, first compound 10 µM",72.4%
same,"viability, T/C",[22],62.8%
same,"viability, T/C","second compound 1 µM, first compound 0.1 µM",65.3%
same,"viability, T/C",[24],72.4%
same,"viability, T/C","second compound 1 µM, first compound 1 µM",54.9%
same,"viability, T/C","second compound 1 µM, first compound 3.16 µM",49.9%
same,"viability, T/C","second compound 1 µM, first compound 10 µM",54.2%
same,"viability, T/C",[28],37.2%
same,"viability, T/C","second compound 3.16 µM, first compound 0.1 µM",40.3%
same,"viability, T/C",[30],54.2%
same,"viability, T/C","second compound 3.16 µM, first compound 1 µM",48.6%
same,"viability, T/C","second compound 3.16 µM, first compound 3.16 µM",39.1%
same,"viability, T/C","second compound 3.16 µM, first compound 10 µM",41.3%
same,"viability, T/C",[34],65.1%
same,"viability, T/C","second compound 10 µM, first compound 0.1 µM",58.8%
same,"viability, T/C",[36],80.8%
same,"viability, T/C","second compound 10 µM, first compound 1 µM",55.1%
same,"viability, T/C","second compound 10 µM, first compound 3.16 µM",81%
same,"viability, T/C","second compound 10 µM, first compound 10 µM",56.4%
Cn1ncnc1[C@H]1c2n[nH]c(=O)c3cc(F)cc(c23)N[C@@H]1c1ccc(F)cc1 + Cc1[nH]c2ccc(F)cc2c1-c1nc2c3cccnc3c3ncccc3c2[nH]1,IC50,second compound 0.0316 µM,29.3 nM
same,IC50,second compound 0.1 µM,77.7 nM
same,IC50,second compound 0.316 µM,34.5 nM
same,IC50,second compound 1 µM,82.7 nM
same,IC50,second compound 3.16 µM,< 0.999 nM
same,IC50,second compound 10 µM,86.6 nM
same,"viability, T/C",[1],49.4%
same,"viability, T/C",[2],88%
same,"viability, T/C",[3],94.7%
same,"viability, T/C",[4],48%
same,"viability, T/C",[5],46.8%
same,"viability, T/C",[6],39.2%
same,"viability, T/C",[7],82.3%
same,"viability, T/C",[8],110%
same,"viability, T/C",[9],85%
same,"viability, T/C",[10],59%
same,"viability, T/C",[11],54.2%
same,"viability, T/C",[12],30.8%
same,"viability, T/C",[13],64.6%
same,"viability, T/C",[14],102%
same,"viability, T/C",[15],68.7%
same,"viability, T/C",[16],51.8%
same,"viability, T/C",[17],50.9%
same,"viability, T/C",[18],35.7%
same,"viability, T/C",[19],35.3%
same,"viability, T/C",[20],76.3%
same,"viability, T/C",[21],63.1%
same,"viability, T/C",[22],68.7%
same,"viability, T/C",[23],47.9%
same,"viability, T/C",[24],38.4%
same,"viability, T/C",[25],36%
same,"viability, T/C",[26],36.9%
same,"viability, T/C",[27],43.2%
same,"viability, T/C",[28],37.5%
same,"viability, T/C",[29],35.5%
same,"viability, T/C",[30],25.3%
same,"viability, T/C",[31],62.5%
same,"viability, T/C",[32],47%
same,"viability, T/C",[33],62.2%
same,"viability, T/C",[34],57.9%
same,"viability, T/C",[35],46.5%
same,"viability, T/C",[36],36.4%

# — PubChem BioAssay AID2060504 (Molecular Pharmacology Branch, DTP, NCI, 2025)
